According to PMC12132910, “A Novel Inhibitor against the Bromodomain Protein 1 of the Malaria Pathogen Plasmodium Falciparum” (Chemmedchem, 2025):

What was measured:
[1] = system: 3D7::PfBDP1HADD parasites; test: Dose-response assay in conditional PfBDP1 knockdown parasites; type: cell-based, Plasmodium falciparum; settings: 10 nM Shld1 compared to 500 nM Shld1, 72 h
Source text: To validate whether the compounds indeed target the BRD of PfBDP1, we utilized a conditional KD system to modulate the expression levels of PfBDP1 in situ.^[ [15] ^] In the 3D7::PfBDP1HADD line, PfBDP1 is fused at its C‐terminus to a ligand‐regulatable FKBP destabilization domain (DD) that targets the fusion protein for proteasomal degradation but can be stabilized by the Shield1 ligand, and 3xHA epitope tags for detection ^11. […] In contrast, the EC50 of chloroquine was unchanged.
A) Western Blot analysis of 3D7::PfBDP1HADD parasites cultivated in the presence of Shield1 (Shld) in concentrations ranging from 0 to 500 nM over 72 h in duplicates. PfBDP1HADD was detected by anti‐HA antibodies. Histone 3 (H3) was probed as a loading control. […] Growth was determined relative to DMSO controls for each condition after 72 h of culture. N = 4 replicates. […] Binding of PfBDP1HA to target loci was calculated as enrichment relative to histone H3 ChIP performed in parallel. Shown are individual values and median of one representative experiment with technical duplicates. Paired t‐test, p = 0.0015. […]
resistant strain K1, MRA-159, contributed by Dennis E. Kyle. The NF54::PfBDP1HA parasite line was generated by transfection of NF54 parasites with the plasmid pSLI_PfBDP1_3xHA and selection linked integration of the construct in the presence of G418[21]. […]
(§1) Malaria SYBR green I based fluorescence assay
SYBR Green I based fluorescence assays to determine dose-response curves were performed essentially as described previously (Leidenberger et al., 2017). […] After 72 hours, cultures were lysed in lysis buffer (20 mM Tris-HCl, 5 mM EDTA, 0.008% saponin (Sigma-Aldrich), 0.08% Triton X (Sigma-Aldrich), 1:10,000 SYBR Green I dye (Invitrogen)) and fluorescence was measured in a Fluoroskan Ascent FL reader (excitation: 485 nm, emission: 530 nm). […]

P. falciparum NF54 [2] = test: Malaria SYBR green I based fluorescence assay, dose response, NF54; type: cell-based; settings: Plasmodium falciparum, blood stage culture, 72 hours, mean (SD), 1 to 3 biological replicates
Experimental: (§2) The BRDi compounds had modest activity against all three strains (Table 2 ). […]
(§3) Shield1. Parasites were propagated in human red blood cells (blood group 0+) obtained from the Bavarian Red Cross service (BRK) and cultivated under standard conditions in RPMI 1640 (ThermoFisher) supplemented with 0.5% Albumax
(§4) (ThermoFisher), 20 µg/ml Gentamycin, 25 mM Hepes (pH 7.3), and 0.02% hypoxanthine in an atmosphere of 1% O2, 5% CO2, 94% N2.
as §1
(§5) SYBR Green I based fluorescence assays to determine dose-response curves were performed essentially as described previously (Leidenberger et al., 2017). Briefly, parasite cultures were diluted to 1% ring stage parasitemia and cultivated at 2.5% haematocrit in 96 well plates in the presence of serial half-log dilutions of the compounds ranging from 100 µM to 10 nM or DMSO (dimethyl sulfoxide) corresponding to the highest concentration (0.1%). Chloroquine (C6628, Sigma-Aldrich) was used as control that was not expected to target PfBDP1 and was titrated from 5 µM to 1.6 nM. After 72 hours, cultures were lysed in lysis buffer (20 mM Tris-HCl, 5 mM EDTA, 0.008% saponin (Sigma-Aldrich), 0.08% Triton X (Sigma-Aldrich), 1:10,000 SYBR Green I dye (Invitrogen)) and fluorescence was measured in a Fluoroskan Ascent FL reader (excitation: 485 nm, emission: 530 nm). […]

P. falciparum 3D7 [3] = test: Malaria SYBR green I based fluorescence assay, dose response, 3D7; type: cell-based; settings: Plasmodium falciparum, blood stage culture, 72 hours, mean (SD), 1 to 3 biological replicates
Experimental: as §2, §3, §4, §1, §5

[4] = system: P. falciparum K1 (multidrug resistant); test: Malaria SYBR green I based fluorescence assay, dose response, K1; type: cell-based; settings: Plasmodium falciparum, K1, 72 h, read-out: EC50 K1
Experimental: as §2
resistant strain K1, MRA-159, contributed by Dennis E. Kyle. […]
as §3, §4, §1, §5

P. falciparum NF54 [5] = test: Growth of synchronous ring-stage cultures under treatment, NF54; type: cell-based, Plasmodium falciparum; settings: 48 h of treatment
P. falciparum 3D7 [6] = test: Growth of synchronous ring-stage cultures under treatment, 3D7; type: cell-based, Plasmodium falciparum; settings: 3D7, synchronous ring stage, 48 h of treatment
[7] = system: P. falciparum blood stage parasites; test: Morphology and stage progression of treated synchronous parasites; type: cell-based, Plasmodium falciparum

Cc1cc(C(N)=O)ccc1-c1[nH]c(C)c2c1CCCCC2=O [RMM23, 3-Methyl-4-(3-methyl-4-oxo-2,4,5,6,7,8-hexahydrocyclohepta[c]pyrrol-1-yl)benzamide]
change of sensitivity (dose-response, EC50) under partial PfBDP1 knockdown [1]: increased sensitivity | EC50 (P. falciparum NF54 [2]): 14 µM | EC50 (P. falciparum 3D7 [3]): 18.3 µM | EC50 [4]: 20.9 µM | parasite growth after treatment of ring-stage culture (P. falciparum NF54 [5]): significantly reduced growth | parasite growth after treatment of ring-stage culture (P. falciparum 3D7 [6]): significantly reduced growth | parasite development (morphology) after treatment from ring stage ([7]; treatment started at ring stage, normal trophozoites by 24 h): failed to undergo DNA replication and schizogony | parasite development after treatment from trophozoite stage ([7]; treatment started at trophozoite stage, within 24 h, relative to DMSO control): block in egress and reinvasion
